{
  "source": "patent US6509355B1",
  "about": "“Treatment of disorders of the outer retina” (Alcon Laboratories, Inc., priority 1998, dated 2003)",
  "key": {"[1]": {"system": "photo-oxidative induced retinopathy", "experiment": "Photo-oxidative induced retinopathy: 6-hour blue light exposure, ERG after 5-day recovery", "settings": "rat, in vivo", "source_text": "Photic retinopathy results from excessive excitation of the retinal pigment epithelium and neuroretina by absorption of visible or near ultraviolet radiation. Lesion severity is dependent upon wavelength, irradiance, exposure duration, species, ocular pigmentation, and age. Damage may result from peroxidation of cellular membranes, inactivation of mitochondrial enzymes such as cytochrome oxidase, or increased intracellular calcium. Cellular damage resulting from photo-oxidative stress leads to cell death by apoptosis, (Shahinfar, S., Edward. D. P. and Tso, M. O. (1991), A pathologic study of photoreceptor cell death in retinal photic injury. Current Eye Research, 10:47-59: Abler, A. S., Chang, C. J., Fu, J. and Tso, M. O. (1994), Photic injury triggers apoptosis of photoreceptor cells. Investigative Ophthalmology & Visual Science, 35(Suppl):1517). Oxidative stress induced apoptosis has been implicated as a cause of many ocular pathologies, including, iatrogenic retinopathy, macular degeneration, retinitis pigmentosa and other forms of heredodegenerative disease, ischemic retinopathy, retinal tears, retinal detachment, glaucoma and retinal neovascularization (Chang, C. J., Lai, W. W., Edward, D. P. and Tso, M. O. (1995), Apoptotic photoreceptor cell death after traumatic retinal detachment in humans, Archives of Ophthalmology, 113:880-886: Portera-Cailliau, C., Sung, C. H., Nathans, J. and Adler, R. (1994), Apoptotic photoreceptor cell death in mouse models of retinitis pigmentosa, Proceedings of National Academy of Science (U.S.A.), 91:974-978; Buchi, E. R. (1992), Cell death in the rat retina after a pressure-induced ischaemia-reperfusion insult: an electron microscopic study. I. Ganglion cell layer and inner nuclear layer, Experimental Eye Research, 55:605-613; Quigley, H. A., Nickells. R. W., Kerrigan, L. A., Pease, M. E., Thibault, D. J. and Zack, D. J. (1995), Retinal ganglion cell death in experimental glaucoma and after axotomy occurs by apoptosis, Investigative Ophthalmology & Visual Science, 36:774-786). […] Alan R. Liss, Inc., New York; Collier, R., W. Waldron and Zigman, S. (1989), Temporal sequence of changes to the gray squirrel retina after near-UV exposure, Investigative Ophthalmology & Visual Science, 30:631-637), non-human primates (Tso, M. O. M. (1973), Photic maculopathy in rhesus monkey. A light and electron microscopic study. Investigative Ophthalmology & Visual Science, 12:17-34; Ham, W. T., Jr., Ruffolo, J. J., Jr., Mueller, H. A. and Guerry, D., III. (1980), The nature of retinal radiation damage: dependence on wavelength, power level and exposure time, Vision Research, 20:1105-1111; Sperling, H. G., Johnson, C. and Harwerth, R. S. (1980), Differential spectral photic damage to primate cones, Vision Research, 20:1117-1125: Sykes, S. M., Robison, W. G., Jr., Waxler, M. and Kuwabara, T. (1981), Damage to the monkey retina by broad spectrum fluorescent light, Investigative Ophthalmology & Visual Science, 20:425-434; Lawwill, T. (1982), Three major pathologic processes caused by light in the primate retina: A search for mechanisms, Transactions of the American Ophthalmology Society, 80:517-577), and man (Marshall, J. Hamilton, A. M. and Bird, A. C. (1975), Histopathology of ruby and argon laser lesions in monkey and human retina, British Journal of Ophthalmology, 59:610-630; Green, W. R. and Robertson, D. M. (1991), Pathologic findings of photic retinopathy in the human eye. American Journal of Ophthalmology, 112:520-27)."}, "[2]": {"system": "retinal laser burn", "experiment": "Retinal laser burn spread damage: argon laser, lesion area in outer nuclear layer after 48 hours", "format": "in vivo, Pigmented Long Evans rats", "source_text": "The eye is exposed to high-energy laser radiation during the performance of retinal photocoagulation therapy (grid, focal and […]) or during photodynamic therapy. This type of therapy is often employed during treatment of choroidal neovascularization, proliferative stages of diabetic retinopathy, retinopathy of prematurity, or to repair retinal holes or […]. Associated with this laser therapy is tissue destruction leading to vision deterioration. […] It is believed that this vision loss results directly from the expansion of the laser-induced lesion to surrounding normal neurosensory retina and RPE. Singlet oxygen and other reactive oxygen species as well as cytokines are generated in the area of the laser burn and thought to migrate laterally to cause collateral retinal damage. Retinal morphology changes in this area are similar to changes in our photo-oxidative retinopathy paradigm. […] Pigmented Long Evans rats were randomly assigned to control, vehicle or drug dosed groups. […] After a 48-hour recovery period, eyes were fixed, dehydrated, and embedded in plastic resin. Histological assessment of laser burns was performed by flatmounting the retina and sectioning the tissue in a plane tangential to the nerve fiber layer. Using this technique, the lesion area in the outer nuclear layer could be calculated using an image analysis system. […] The laser bum center was marked by; complete closure of all capillaries, arterioles and venuoles; perforation of Bruch's membrane; pyknosis and necrosis of all photoreceptor nuclei; and destruction of inner and outer segments. Spread of the lesion into peripheral retina consisted of shortening of outer segments, inner segment swelling, clumping of melanin granules in the RPE and choroid, and vacuolization of the RPE."}, "[3]": {"system": "NMDA receptor", "experiment": "Binding affinity to the NMDA receptor", "settings": "order of magnitude only"}, "[4]": {"system": "light induced functional or morphological changes", "experiment": "Light damage paradigms (light induced damage paradigm)", "settings": "in vivo", "experimental": "Eliprodil was evaluated in our light induced damage paradigm, a model of retinal degenerative diseases such as retinitis pigmentosa and age-related macular degeneration."}, "[5]": {"target": "NR1A/NR2B subtype of the polyamine binding site of the NMDA receptor (Homo sapiens, UniProt Q05586+Q13224)", "sequence (Q13224 27-1484, other chains not shown)": "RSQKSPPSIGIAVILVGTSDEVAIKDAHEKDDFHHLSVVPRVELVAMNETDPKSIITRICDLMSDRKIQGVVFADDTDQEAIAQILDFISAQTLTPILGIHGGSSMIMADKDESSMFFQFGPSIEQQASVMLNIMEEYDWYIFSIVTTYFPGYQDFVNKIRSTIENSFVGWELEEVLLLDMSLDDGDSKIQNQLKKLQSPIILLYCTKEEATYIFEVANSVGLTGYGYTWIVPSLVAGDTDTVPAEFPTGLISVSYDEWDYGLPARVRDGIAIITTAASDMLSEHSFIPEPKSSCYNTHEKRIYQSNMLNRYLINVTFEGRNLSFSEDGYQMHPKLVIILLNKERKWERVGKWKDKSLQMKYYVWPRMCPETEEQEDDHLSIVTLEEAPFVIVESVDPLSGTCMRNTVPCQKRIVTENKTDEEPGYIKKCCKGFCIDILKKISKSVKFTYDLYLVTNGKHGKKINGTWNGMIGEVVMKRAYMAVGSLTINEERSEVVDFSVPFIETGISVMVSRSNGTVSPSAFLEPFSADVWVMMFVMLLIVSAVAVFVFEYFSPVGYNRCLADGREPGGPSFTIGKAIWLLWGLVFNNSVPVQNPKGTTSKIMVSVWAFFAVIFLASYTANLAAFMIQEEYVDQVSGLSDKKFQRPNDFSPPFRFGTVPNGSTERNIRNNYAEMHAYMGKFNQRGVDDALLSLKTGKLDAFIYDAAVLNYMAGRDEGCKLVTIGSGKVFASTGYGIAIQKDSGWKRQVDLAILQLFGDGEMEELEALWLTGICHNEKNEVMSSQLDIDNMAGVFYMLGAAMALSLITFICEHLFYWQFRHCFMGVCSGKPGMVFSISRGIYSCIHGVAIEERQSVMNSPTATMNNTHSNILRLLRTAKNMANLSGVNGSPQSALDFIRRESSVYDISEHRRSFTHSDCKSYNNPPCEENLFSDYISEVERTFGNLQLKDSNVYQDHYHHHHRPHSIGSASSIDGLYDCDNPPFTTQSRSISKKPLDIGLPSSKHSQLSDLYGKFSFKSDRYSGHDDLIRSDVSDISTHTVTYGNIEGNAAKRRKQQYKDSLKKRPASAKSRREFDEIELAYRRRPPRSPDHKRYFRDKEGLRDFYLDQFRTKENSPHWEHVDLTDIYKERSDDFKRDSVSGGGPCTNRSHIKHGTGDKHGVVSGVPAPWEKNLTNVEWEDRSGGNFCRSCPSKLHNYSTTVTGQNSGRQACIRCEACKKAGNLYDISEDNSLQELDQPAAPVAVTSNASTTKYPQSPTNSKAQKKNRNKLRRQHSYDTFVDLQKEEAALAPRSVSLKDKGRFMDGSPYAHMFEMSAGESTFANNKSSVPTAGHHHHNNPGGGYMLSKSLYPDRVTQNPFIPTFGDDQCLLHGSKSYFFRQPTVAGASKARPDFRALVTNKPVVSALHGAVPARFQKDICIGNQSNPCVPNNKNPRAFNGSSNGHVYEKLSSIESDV", "settings": "cited from earlier work"}, "[6]": {"settings": "Drugs of the Future 1994; cited from earlier work"}, "[7]": {"settings": "Drugs of the Future 1994; cited from earlier work", "remark": "listed apart in the source"}},
  "data": [
    {"smiles": "OC(CN1CCC(Cc2ccc(F)cc2)CC1)c1ccc(Cl)cc1", "note": "(racemic) [Eliprodil, 2-[4-(4-fluorobenzyl)-piperidino]-1-(4-chlorophenyl)ethanol]", "values": [
      {"measurement": "dose dependence of protection of outer and inner retina function", "setting": "[1]", "result": "dose-dependent protection"},
      {"measurement": "ERGs, % of normal", "setting": "[1]; ip, 2 mg/kg", "result": "approximately 32%"},
      {"measurement": "protection of outer and inner retina function against light induced retinal degeneration", "setting": "[1]; ip, 2 mg/kg", "result": "not significantly different than vehicles"},
      {"measurement": "ERGs, % of normal", "setting": "[1]; ip, 10 mg/kg", "result": "approximately 32%"},
      {"measurement": "protection of outer and inner retina function against light induced retinal degeneration", "setting": "[1]; ip, 10 mg/kg", "result": "not significantly different than vehicles"},
      {"measurement": "ERG a-wave, % of normal", "setting": "[1]; ip, 20 mg/kg", "result": 57, "unit": "%"},
      {"measurement": "ERG a-wave, fold higher than vehicle dosed rats", "setting": "[1]; ip, 20 mg/kg", "result": 2.4, "unit": "fold"},
      {"measurement": "ERG b-wave, % of normal", "setting": "[1]; ip, 20 mg/kg", "result": 53, "unit": "%"},
      {"measurement": "ERG b-wave, fold higher than vehicle dosed rats", "setting": "[1]; ip, 20 mg/kg", "result": 2.2, "unit": "fold"},
      {"measurement": "Maximum a-wave response amplitude, fold higher than vehicle dosed rats", "setting": "[1]; ip, 20 mg/kg", "result": 2.4, "unit": "fold"},
      {"measurement": "maximum a-wave response amplitude", "setting": "[1]; ip, 20 mg/kg", "result": 395.82, "unit": "μV"},
      {"measurement": "response amplitudes, % of normal", "setting": "[1]; ip, 20 mg/kg", "result": "approximately 60%"},
      {"measurement": "Maximum a-wave response amplitude, fold higher than vehicle dosed rats", "setting": "[1]; ip, 40 mg/kg", "result": 2.25, "unit": "fold"},
      {"measurement": "maximum a-wave response amplitude", "setting": "[1]; ip, 40 mg/kg", "result": 419.85, "unit": "μV"},
      {"measurement": "protection of outer and inner retina function against light induced retinal degeneration", "setting": "[1]; ip, 40 mg/kg", "result": "significant protection"},
      {"measurement": "response amplitudes, % of normal", "setting": "[1]; ip, 40 mg/kg", "result": "approximately 60%"},
      {"measurement": "Laser burn lesion area", "setting": "[2]; 10 mg/kg IP", "result": "55,411.67 μ^2"},
      {"measurement": "reduction in laser lesion burn size", "setting": "[2]; 10 mg/kg IP", "result": "No reduction"},
      {"measurement": "reduction of retinal burn area compared to vehicle", "setting": "[2]; IP, dose not given", "result": "approximately 60%"},
      {"measurement": "significance of burn area reduction compared to vehicle", "setting": "[2]; IP, dose not given", "result": "significantly reduced"},
      {"measurement": "average burn area", "setting": "[2]; IP, dose not given, vehicle 55,243.65, control 50,627.07", "result": "22,406 μ^2"},
      {"measurement": "efficacy compared to R-eliprodil", "setting": "[2]; summary", "result": "twice as efficacious"},
      {"measurement": "potency compared to R-eliprodil", "setting": "[2]; summary", "result": "two fold more potent"},
      {"measurement": "reduction of collateral retinal damage around the laser burn (summary)", "setting": "[2]; summary", "result": "significant reduction"},
      {"measurement": "binding affinity to the NMDA receptor", "setting": "[3]", "result": "nanomolar"},
      {"measurement": "preventing light induced functional or morphological changes", "setting": "[4]", "result": "completely protected"},
      {"measurement": "subtype preference of NMDA receptor block", "setting": "[5]", "result": "preferentially block"},
      {"measurement": "crossing of the blood-brain barrier", "setting": "[6]", "result": "effectively crosses the blood-brain barrier"},
      {"measurement": "oral bioavailability", "setting": "[6]", "result": "orally bioavailable"},
      {"measurement": "incidence of adverse effects upon administration", "setting": "[7]", "result": "low incidence of adverse effects"}
    ]}
  ]
}
